According to US12161630B2, “Methods to control infection using new generation small molecule growth inhibitors” (priority 2017, dated 2024):

Tests used:
[1] = system: S. typhimurium WT; assay: High-throughput primary screen for S. typhimurium growth inhibitors at 200 μM; format: cell-based, Salmonella enterica subsp. enterica serovar Typhimurium LT2; settings: adjusted M9 minimal broth, 12 hrs, 37° C., bactericidal = 100% growth inhibition and no growth on XLT4 agar, bacteriostatic = 100% growth inhibition but growth on XLT4 agar
Procedure: Identification of S. typhimurium growth inhibitors: The 4182 small molecules (SMs) were screened at 200 μM against S. typhimurium WT using HTS assay in a 96-well plate format. An overnight Salmonella suspension was normalized at 0.05 OD600 (approximately 3.5×10^7 CFU/ml) with an adjusted M9 minimal broth medium (12.7 mM Na2HPO4 7H2O; 22 mM KH2PO4; 18.7 mM NH4Cl; 2 mM MgSO4; 0.1 mM CaCl2; 0.4% glucose; 0.05% casamino acids). 100 μL of the suspension plus 2 μl of SMs (200 μM) were transferred into each well of a sterile, non-treated, flat bottom 96-well plate. Bacteria alone (negative control, NC), 2% DMSO plus bacteria (DMSO control), 20 μg/ml chloramphenicol or 50 μg/ml kanamycin plus bacteria (positive controls, PC), and M9 medium only were used as control. Plates were incubated in a Sunrise™ Tecan kinetic microplate reader for 12 hrs at 37° C. and the optical density (OD) was measure at 600 nm as described above. Percentage of inhibition=[…]. SMs were identified as growth inhibitors if their inhibition value after incubation was above 20% (value representing the inhibition level monitored with the DMSO controls). Cultures from wells showing no turbidimetric increase were transferred onto a XLT4 agar plate. Plates were incubated at 37° C. for 36 hrs.

[2] = system: S. typhimurium WT; assay: Combined antimicrobial study between antibiotics and SMs; format: cell-based, Salmonella enterica subsp. enterica serovar Typhimurium LT2; settings: for MBCAlone (MBC of the antibiotic by itself, no SM): S. typhimurium WT, adjusted M9 minimal broth; for MBCComb4 (MBC of antibiotic in antibiotic+SM4 combination) / SM4R (result of synergy testing, antibiotic+SM4): [SM4] 10 μM; for MBCComb5 (MBC of antibiotic in antibiotic+SM5 combination) / SM5R (result of synergy testing, antibiotic+SM5): [SM5] 25 μM; for effect of the presence of SM on antibiotic MBC: combined with SM1, SM3, SM4 or SM5; for reduction in MBC when combined with SM1: antibiotic combined with SM1
Procedure: Combined antimicrobial study between antibiotics and small molecules (SMs): The antimicrobial efficacy of several antibiotics commonly used to control Salmonella was studied once combined with the selected four SMs. […] The MBC of each antibiotic were pre-determined as described previously. Bacteria challenged with only SMs or antibiotics at the same concentrations were used to determine the ATB-SM combination effects. […] Plates were incubated in a Sunrise™ Tecan kinetic microplate reader for 12 hrs at 37° C. and the optical density (OD) was measure at 600 nm as described above. After challenging, survival was recorded following plating of the bacterial suspension on agar plate and incubated at 37° C. for 36 hrs. The ATB-SM combination effect was calculated as described in Doern CD, 2014 (12).

With `O=[N+]([O-])c1ccc(F)c(N=Cc2cc(Cl)cc(Cl)c2O)c1` [SM7, 2,4-dichloro-6-{[(2-fluoro-5-nitrophenyl)imino]methyl}phenol] the “Effect on S. Typhimurium at 200 μM” value [1] was “Bactericidal”.
For `COc1ccc(CNCc2ccc(C)cc2)cc1OCC(O)CN1CCCCCCC1` (stereo not shown) [SM15, 1-(1-azocanyl)-3-(2-methoxy-5-{[(4-methylbenzyl)amino]methyl}phenoxy)-2-propanol], the “Effect on S. Typhimurium at 200 μM” value [1] was “Bacteriostatic”.
`CC[C@H]1OC(=O)[C@H](C)[C@@H](O[C@H]2C[C@@](C)(OC)[C@@H](O)[C@H](C)O2)[C@H](C)[C@@H](O[C@@H]2O[C@H](C)C[C@H](N(C)C)[C@H]2O)[C@](C)(O)C[C@@H](C)C(=O)[C@H](C)[C@@H](O)[C@]1(C)O` [Erythromycin, erythromycin] was tested, and the “MBCAlone (MBC of the antibiotic by itself, no SM)” value [2] was 200 µg/mL, the “MBCComb1 (MBC of antibiotic in antibiotic+SM1 combination)” value (shortened to “MBCComb1”) ([2]; [SM1] 50 μM) was 200 µg/mL and the “SM1R (result of synergy testing, antibiotic+SM1)” value (from here on “SM1R”) ([2]; [SM1] 50 μM) was “Ind”. For the same molecule, the “MBCComb3 (MBC of antibiotic in antibiotic+SM3 combination)” value (“MBCComb3” for short) ([2]; [SM3] 25 μM) was 200 µg/mL, the “SM3R (result of synergy testing, antibiotic+SM3)” value (shortened to “SM3R”) ([2]; [SM3] 25 μM) was “Ind” and the “MBCComb4 (MBC of antibiotic in antibiotic+SM4 combination)” value (“MBCComb4” below) [2] was 200 µg/mL. For the same molecule, the “SM4R (result of synergy testing, antibiotic+SM4)” value (“SM4R” for short) [2] was “Ind”, the “MBCComb5 (MBC of antibiotic in antibiotic+SM5 combination)” value (“MBCComb5” below) [2] was 200 µg/mL and the “SM5R (result of synergy testing, antibiotic+SM5)” value (“SM5R” for short) [2] was “Ind”. For the same molecule, the “effect of the presence of SM on antibiotic MBC” value [2] was “no effect”.
For `C[C@@H](O)[C@H]1C(=O)N2C(C(=O)O)=C(S[C@@H]3CN[C@H](C(=O)N(C)C)C3)[C@H](C)[C@H]12` [Meropenem, meropenem], the “MBCAlone (MBC of the antibiotic by itself, no SM)” value [2] was 0.2 µg/mL, the “MBCComb1” value ([2]; [SM1] 5 μM) was 0.16 µg/mL and the “SM1R” value ([2]; [SM1] 5 μM) was “Add”. For the same molecule, the “MBCComb1” value ([2]; [SM1] 10 μM) was 0.08 µg/mL, the “SM1R” value ([2]; [SM1] 10 μM) was “Add” and the “MBCComb1” value ([2]; [SM1] 20 μM) was 0.04 µg/mL. The “SM1R” value ([2]; [SM1] 20 μM) was “Add”, the “MBCComb3” value ([2]; [SM3] 15 μM) was 0.16 µg/mL and the “SM3R” value ([2]; [SM3] 15 μM) was “Ind”. The “MBCComb3” value ([2]; [SM3] 20 μM) was 0.08 µg/mL, the “SM3R” value ([2]; [SM3] 20 μM) was “Ind” and the “MBCComb4” value [2] was 0.2 µg/mL. For the same molecule, the “SM4R” value [2] was “Ind”, the “MBCComb5” value [2] was 0.2 µg/mL and the “SM5R” value [2] was “Ind”. The “reduction in MBC when combined with SM1” value [2] was “up to 80%”.
For `CCn1cc(C(=O)O)c(=O)c2ccc(C)nc21` [Nalidixic Acid, nalidixic acid], the “MBCAlone (MBC of the antibiotic by itself, no SM)” value [2] was 16 µg/mL, the “MBCComb1” value ([2]; [SM1] 30 μM) was 8 µg/mL and the “SM1R” value ([2]; [SM1] 30 μM) was “Ind”. The “MBCComb1” value ([2]; [SM1] 40 μM) was 4.8 µg/mL, the “SM1R” value ([2]; [SM1] 40 μM) was “Ind” and the “MBCComb3” value ([2]; [SM3] 25 μM) was 16 µg/mL. The “SM3R” value ([2]; [SM3] 25 μM) was “Ind”, the “MBCComb4” value [2] was 16 µg/mL and the “SM4R” value [2] was “Ind”. For the same molecule, the “MBCComb5” value [2] was 16 µg/mL, the “SM5R” value [2] was “Ind” and the “reduction in MBC when combined with SM1” value [2] was “up to 70%”.
With `Clc1ccc(CCNC2CCN(Cc3ccccc3)CC2)c(Cl)c1` [SM13, 1-benzyl-N-[2-(2,4-dichlorophenyl)ethyl]-4-piperidinamine] the “Effect on S. Typhimurium at 200 μM” value [1] was “Bacteriostatic”.
For `COc1cccc(C2(c3ccc(O)cc3)CCCC2)c1` [SM11, 4-[1-(3-methoxyphenyl)cyclopentyl]phenol], the “Effect on S. Typhimurium at 200 μM” value [1] was “Bacteriostatic”.
With `CO/N=C(\C(=O)N[C@@H]1C(=O)N2C(C(=O)O)=C(COC(C)=O)CS[C@H]12)c1csc(N)n1` [Cefotaxime, cefotaxime] the “MBCAlone (MBC of the antibiotic by itself, no SM)” value [2] was 3.2 µg/mL, the “MBCComb1” value ([2]; [SM1] 50 μM) was 3.2 µg/mL and the “SM1R” value ([2]; [SM1] 50 μM) was “Ind”. For the same molecule, the “MBCComb3” value ([2]; [SM3] 25 μM) was 3.2 µg/mL, the “SM3R” value ([2]; [SM3] 25 μM) was “Ind” and the “MBCComb4” value [2] was 3.2 µg/mL. For the same molecule, the “SM4R” value [2] was “Ind”, the “MBCComb5” value [2] was 3.2 µg/mL and the “SM5R” value [2] was “Ind”. For the same molecule, the “effect of the presence of SM on antibiotic MBC” value [2] was “no effect”.
`CCOC(=O)c1c(N)sc(C(C)=O)c1C` [SM10, ethyl 5-acetyl-2-amino-4-methyl-3-thiophenecarboxylate] was tested, and the “Effect on S. Typhimurium at 200 μM” value [1] was “Bacteriostatic”.
With `O=C(O)c1cc(NN=Nc2ccc(Br)cc2)cc([N+](=O)[O-])c1` [SM12, 3-[3-(4-bromophenyl)-2-triazen-1-yl]-5-nitrobenzoic acid] the “Effect on S. Typhimurium at 200 μM” value [1] was “Bacteriostatic”.
In the case of `CC1=NN(c2ccccc2)C(=O)C1C(=O)c1ccccc1` (stereo not shown) [SM18, 4-benzoyl-5-methyl-2-phenyl-2,4-dihydro-3H-pyrazol-3-one], the “Effect on S. Typhimurium at 200 μM” value [1] is reported as “Bacteriostatic”.
In the case of `COc1cccc(N=Cc2cc(Cl)cc(Cl)c2O)c1` [SM8, 2,4-dichloro-6-{[(3-methoxyphenyl)imino]methyl}phenol], the “Effect on S. Typhimurium at 200 μM” value [1] is reported as “Bactericidal”.
In the case of `CN(Cc1ccccc1)CC(O)COc1ccc(CNCc2ccc(Cl)s2)cc1` (stereo not shown) [SM6, 1-[benzyl(methyl)amino]-3-[4-({[(5-chloro-2-thienyl)methyl]amino}methyl)phenoxy]-2-propanol], the “Effect on S. Typhimurium at 200 μM” value [1] is reported as “Bactericidal”.
`CN1C(=O)NC(=O)C(=Cc2ccc([N+](=O)[O-])o2)C1=O` [SM17, 1-methyl-5-[(5-nitro-2-furyl)methylene]-2,4,6(1H,3H,5H)-pyrimidinetrione] was tested, and the “Effect on S. Typhimurium at 200 μM” value [1] was “Bacteriostatic”.
`CC(C)Cc1ccc(CN2CCCC(NC(=O)CN3CCCN(C)CC3)C2)cc1` (stereo not shown) [SM9, N-[1-(4-isobutylbenzyl)-3-piperidinyl]-2-(4-methyl-1,4-diazepan-1-yl)acetamide] was tested, and the “Effect on S. Typhimurium at 200 μM” value [1] was “Bactericidal”.
`COc1cccc(N=Cc2cc(Br)ccc2O)c1` [SM16, 4-bromo-2-{[(3-methoxyphenyl)imino]methyl}phenol] was tested, and the “Effect on S. Typhimurium at 200 μM” value [1] was “Bacteriostatic”.
For `C(=Cc1ccccc1)CN1CCN(C2c3ccccc3-c3ccccc32)CC1` [SM19, 1-(9H-fluoren-9-yl)-4-(3-phenyl-2-propen-1-yl)piperazine], the “Effect on S. Typhimurium at 200 μM” value [1] was “Bacteriostatic”.
